This passage reports IC50 results from patent US20220144812A1, “QUINOLINE DERIVATIVES AND THEIR USE FOR THE TREATMENT OF CANCER” (Epizyme, Inc., priority 2019, published 2022).

For experiment [1], the system named is H3K18Ac in HB-CLS-2 cells. In words: H3K18AC in-cell western (ICW) assay. The format is cell-based. The following applies: H3K18Ac in-cell western; read-out: CREBBP ICW IC50. The essentials:
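In-cell western: after methanol fixation, blocking, overnight 4° C anti-H3K18Ac staining, then 800CW secondary plus DRAQ5 for DNA content, integrated intensities were scanned at 800 and 700 nm. Before this, compound exposure lasted 2 hr at 37° C in HB-CLS-2 cells plated 16–24 hours earlier. Values expressed as IC50 (μM).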

For experiment [2], the target named is T1, EP300 (P300(1048-1664)) (Homo sapiens, UniProt Q09472).
T1 construct: P300(1048-1664)
T1 sequence (Q09472 1048-1664): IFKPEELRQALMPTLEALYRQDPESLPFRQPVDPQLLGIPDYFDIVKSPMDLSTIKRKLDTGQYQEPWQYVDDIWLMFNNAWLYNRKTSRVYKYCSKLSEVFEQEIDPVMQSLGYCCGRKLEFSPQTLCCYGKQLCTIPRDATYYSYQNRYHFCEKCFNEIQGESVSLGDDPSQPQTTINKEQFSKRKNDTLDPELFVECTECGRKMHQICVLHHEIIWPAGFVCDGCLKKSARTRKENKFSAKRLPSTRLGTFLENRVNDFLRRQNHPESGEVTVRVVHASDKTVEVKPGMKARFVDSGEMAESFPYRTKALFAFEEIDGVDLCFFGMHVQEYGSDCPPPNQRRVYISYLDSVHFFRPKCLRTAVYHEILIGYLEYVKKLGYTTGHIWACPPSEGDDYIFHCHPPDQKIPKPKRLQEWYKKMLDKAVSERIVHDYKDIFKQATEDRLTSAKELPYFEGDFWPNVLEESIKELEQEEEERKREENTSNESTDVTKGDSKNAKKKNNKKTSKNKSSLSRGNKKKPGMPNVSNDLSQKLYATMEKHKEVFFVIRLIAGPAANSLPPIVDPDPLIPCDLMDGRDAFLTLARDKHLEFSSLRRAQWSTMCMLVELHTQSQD
Kind of experiment: Biochemical assay for EP300, SAMDI. The note with it: EP300, SAMDI; read-out: EP300 Biochemistry IC50. The text has this: The following example describes materials and methods relating to a biochemical assay for EP300. IC50 values (micromolar (μM)) are summarized in Table 1, Table 2, and Table 3 under the column labeled: “EP300 Biochemistry IC50 (micromolar).”

For experiment [3], the system named is 647V cells. Kind of experiment: High throughput proliferation (HTP) assay. The format is cell-based. The following applies: Homo sapiens, 647-V, high throughput proliferation; read-out: CREBBP HTP IC50. The essentials:
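Proliferation IC50 (micromolar) derived from a 7-day CellTiter-Glo viable-cell readout in 647V cells exposed, in triplicate, to rising compound concentrations; cells grown in DMEM plus 15% heat-inactivated FBS at 37° C under 5% CO2.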

Experiment [4] has as its target T2, CREBBP (1084-1701) (Homo sapiens, UniProt Q92793).
T2 construct: measured in the following biochemical assay using CREBBP (1084-1701); purchased
In words: Biochemical assay for CREBBP (1084-1701), SAMDI. The following applies: SAMDI, read-out: CREBBP Biochemistry IC50. The essentials: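 Acetyltransferase activity measured by SAMDI mass spectrometry after capture on biochip. Enzyme sat with compound 30 min at RT before acetyl-CoA and biotinylated H3 11-25 (K14R, K23R) peptide were added for 30 min at RT. Formic acid quench, bicarbonate neutralisation; IC50 values reported.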

T2 sequence (Q92793 1084-1701): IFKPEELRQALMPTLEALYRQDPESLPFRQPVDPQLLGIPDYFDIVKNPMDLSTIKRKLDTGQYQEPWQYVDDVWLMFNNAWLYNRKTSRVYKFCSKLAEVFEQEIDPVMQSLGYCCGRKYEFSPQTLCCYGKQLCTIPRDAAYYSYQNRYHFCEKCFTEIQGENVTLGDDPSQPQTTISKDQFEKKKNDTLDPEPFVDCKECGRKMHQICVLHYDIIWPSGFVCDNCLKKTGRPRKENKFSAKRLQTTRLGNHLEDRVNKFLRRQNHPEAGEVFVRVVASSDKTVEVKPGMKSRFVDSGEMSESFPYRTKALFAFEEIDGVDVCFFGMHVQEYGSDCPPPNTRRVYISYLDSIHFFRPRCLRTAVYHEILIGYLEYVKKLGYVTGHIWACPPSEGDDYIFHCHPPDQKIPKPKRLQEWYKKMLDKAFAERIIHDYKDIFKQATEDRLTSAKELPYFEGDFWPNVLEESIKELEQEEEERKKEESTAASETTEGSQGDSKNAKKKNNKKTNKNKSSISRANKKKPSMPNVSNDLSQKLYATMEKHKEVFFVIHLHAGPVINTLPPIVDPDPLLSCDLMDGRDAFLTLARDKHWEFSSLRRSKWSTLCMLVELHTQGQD

Usually IC50 stands for the point on the concentration scale where inhibition reaches its midpoint. As for `Cc1nc(-c2cc(C(=O)N(C)Cc3cnc(C(F)(F)F)n3C)c3cc(Cl)ccc3n2)ccc1NCCN(C)C` [Compound 598], the half-maximal inhibitory concentration (IC50) amounted to 316 nM in experiment [1], 282 nM in experiment [2], 283 nM in experiment [3] and 105 nM in experiment [4].
With `CNCCNc1ccc(-c2cc(C(=O)N(C)Cc3onc(C4CC4)c3C)c3cc(Cl)ccc3n2)nc1C` [Compound 599], the IC50 in experiment [1] worked out at 1600 nM; in experiment [2], 1750 nM; in experiment [3] it was 1260 nM; in experiment [4] it was 518 nM.
Taken in the same sequence, the figures for `CCn1ncc(CN(C)C(=O)c2cc(-c3ccc(NC4CN(CC#N)C4)c(C)n3)nc3ccc(Cl)cc23)c1C` [Compound 601] were 143 nM, 30.2 nM, 72.6 nM and 44.9 nM.
`CCn1ncc(CN(C)C(=O)c2cc(-c3ccc(NC4CN(CC(F)(F)F)C4)c(C)n3)nc3ccc(Cl)cc23)c1C` [Compound 603]: the IC50 in experiment [1] is 174 nM; in experiment [2], 20.3 nM; in experiment [3] it was 253 nM; in experiment [4] it was 48.7 nM.
For `CCn1ncc(CN(C)C(=O)c2cc(-c3ccc(NCC(O)CN(C)C)c(C)n3)nc3ccc(Cl)cc23)c1C` (centres unmarked) [Compound 604], in that order: 64.8 nM, 11.4 nM, 28.4 nM and 28.5 nM.
Taken in the same sequence, the figures for `CCc1ncc(CN(C)C(=O)c2nc(-c3ccc(NCCN(C)C)nc3C)nc3ccc(Cl)cc23)n1C` [Compound 605] were 943 nM, 3090 nM, 447 nM and 533 nM.
As for `CCc1noc(C(C)N(C)C(=O)c2nc(-c3ccc(NCCN(C)C)c(C)c3)nc3ccc(Cl)cc23)c1C` (centres unmarked) [Compound 606], the IC50 in experiment [1] stood at 294 nM; in experiment [2], 14 nM; in experiment [3], 80.7 nM; in experiment [4], 30.3 nM.
Taken in the same sequence, the figures for `CCn1ncc([C@H](C)N(C)C(=O)c2cc(-c3ccc(NCCNC)c(C)n3)nc3ccc(Cl)cc23)c1C` [Compound 607] were 3270 nM, 3380 nM, 1970 nM and 6510 nM.
On to `CCn1ncc([C@@H](C)N(C)C(=O)c2cc(-c3ccc(NCCNC)c(C)n3)nc3ccc(Cl)cc23)c1C` [Compound 608], for which the IC50 was found to be 107 nM in experiment [1], 26.4 nM in experiment [2], 39 nM in experiment [3] and 92.8 nM in experiment [4].
Taken in the same sequence, the figures for `CCn1ncc([C@@H](C)N(C)C(=O)c2cc(-c3ccc(NCCN(C)C)c(C)n3)nc3ccc(Cl)cc23)c1C` [Compound 610] were 85 nM, 20.9 nM, 37.8 nM and 59.6 nM.
For `CCn1ncc(CN(C)C(=O)c2nc(-c3cc(C)nc(NCCOC)c3)nc3ccc(Cl)cc23)c1C` [Compound 611], in that order: 345 nM, 493 nM, 312 nM and 73.6 nM.
Taken in the same sequence, the figures for `CCn1ncc(CN(C)C(=O)c2nc(-c3cc4c(NC)[nH]nc4cc3C)nc3ccc(C)cc23)c1C` [Compound 612] were 46.3 nM, 6.6 nM, 40.9 nM and 18 nM.
Turning to `CCc1noc(CN(C)C(=O)c2cc(-c3ccc(NC4CN(C)C4)c(C)n3)nc3ccc(Cl)cc23)c1C` [Compound 613], the IC50 in experiment [1] was found to be 53.8 nM; in experiment [2], 11.2 nM; in experiment [3] it was 51.8 nM; in experiment [4], 19.1 nM.
Taken in the same sequence, the figures for `CCn1ncc(CN(C)C(=O)c2nc(-c3cc4c(NC)[nH]nc4cc3C)nc3ccc(C4CC4)cc23)c1C` [Compound 614] were 32.1 nM, 8.7 nM, 34.6 nM and 22.9 nM.
For `CCc1noc(CN(C)C(=O)c2nc(-c3cc4c(NC)[nH]nc4cc3C)nc3ccc(Cl)cc23)c1C` [Compound 615], in that order: 29.1 nM, 3.1 nM, 19.5 nM and 9.75 nM.
Consider `CNc1[nH]nc2ccc(-c3nc(C(=O)N(C)Cc4cnc(C5CC5)n4C)c4cc(COC)ccc4n3)cc12` [Compound 616], for which the IC50 was 102 nM in experiment [1], 14.4 nM in experiment [2], 160 nM in experiment [3] and 25.1 nM in experiment [4].
Taken in the same sequence, the figures for `CNc1[nH]nc2cc(C)c(-c3nc(C(=O)N(C)Cc4cnc(C5CC5)n4C)c4cc(COC)ccc4n3)cc12` [Compound 617] were 87.6 nM, 13.3 nM, 84.1 nM and 40.8 nM.
In the case of `CCn1ncc(CN(C)C(=O)c2nc(-c3cc(C(F)(F)F)c4[nH]nc(N)c4c3)nc3ccc(Cl)cc23)c1C` [Compound 618], the IC50 is 248 nM in experiment [1], 285 nM in experiment [2], 701 nM in experiment [3] and 53.7 nM in experiment [4].
Regarding `CCn1ncc(CN(C)C(=O)c2cc(-c3ccc(NCCN(C)C)c(C(F)(F)F)n3)nc3ccc(Cl)cc23)c1C` [Compound 619], the IC50 came out at 59.9 nM in experiment [1], 14.5 nM in experiment [2], 32.5 nM in experiment [3] and 23.8 nM in experiment [4].
For `CNc1[nH]nc2cc(C)c(-c3nc(C(=O)N(C)Cc4cnn(CC(F)(F)F)c4C)c4cc(Cl)ccc4n3)cc12` [Compound 620], in that order: 67.2 nM, 12.3 nM, 77.7 nM and 25.1 nM.
On to `CCn1ncc(CN(C)C(=O)c2nc(-c3cnc4n[nH]c(N)c4c3)nc3ccc(Cl)cc23)c1C` [Compound 621], for which the IC50 in experiment [1] was 222 nM; in experiment [2], 397 nM; in experiment [3], 391 nM; in experiment [4], 216 nM.
For the compound `CCc1noc(C(C)N(C)C(=O)c2nc(-c3cc4c(NC)[nH]nc4cc3C)nc3ccc(Cl)cc23)c1C` (centres unmarked) [Compound 622], the IC50 amounted to 1320 nM in experiment [1], 383 nM in experiment [2], 2300 nM in experiment [3] and 107 nM in experiment [4].
For `CCn1ncc(CN(C)C(=O)c2nc(-c3cc(C(F)(F)F)c4[nH]nc(NC)c4c3)nc3ccc(Cl)cc23)c1C` [Compound 623], in that order: 230 nM, 28.3 nM, 711 nM and 43.9 nM.
Regarding `CCn1ncc(CN(C)C(=O)c2nc(-c3cc4c(NC)noc4cc3C)nc3ccc(Cl)cc23)c1C` [Compound 624], the IC50 in experiment [1] was 113 nM; in experiment [2], 9.2 nM; in experiment [3] it was 284 nM; in experiment [4], 18.3 nM.
For `CCn1ncc(CN(C)C(=O)c2cc(-c3ccc(NCCS(C)(=O)=O)c(C)n3)nc3ccc(Cl)cc23)c1C` [Compound 625], in that order: 114 nM, 11.3 nM, 163 nM and 19.2 nM.
Consider `Cc1nc(-c2cc(C(=O)N(C)Cc3cn(C)c(CC(F)(F)F)n3)c3cc(Cl)ccc3n2)ccc1NCCN(C)C` [Compound 626], for which the IC50 amounted to 3210 nM in experiment [1], 4240 nM in experiment [2], 5780 nM in experiment [3] and 3310 nM in experiment [4].
For `CCc1ncc(CN(C)C(=O)c2cc(-c3cc(C(=O)NC)n(C)n3)nc3ccc(COC)cc23)n1C` [Compound 627], in that order: 271 nM, 15.6 nM, 506 nM and 49.6 nM.
Taken in the same sequence, the figures for `CCn1ncc(CN(C)C(=O)c2cc(-c3ccc(NCC4CN(C)CCO4)c(C)n3)nc3ccc(Cl)cc23)c1C` (centres unmarked) [Compound 628] were 3300 nM, 1730 nM, 997 nM and 3630 nM.
As for `CCc1ncc(CN(C)C(=O)c2cc(-c3cc(-c4ncc[nH]4)n(C)n3)nc3ccc(COC)cc23)n1C` [Compound 629], the IC50 is 256 nM in experiment [1], 16.8 nM in experiment [2], 292 nM in experiment [3] and 34 nM in experiment [4].
